Assay results taken from PubChem BioAssay (NCI).
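Assay format: 96-well plates, 48-hour exposure. At the TGI there is no net growth.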

Tests used:
Assay in all cases: NCI-60 cell line screen, 48 h
[1] = system: SK-MEL-5 melanoma
[2] = system: M14 melanoma
[3] = system: HCT-116 colon
[4] = system: RPMI-8226 leukemia
[5] = system: CAKI-1 renal
[6] = system: BT-549 breast
[7] = system: OVCAR-5 ovarian
[8] = system: KM12 colon
[9] = system: OVCAR-8 ovarian
[10] = system: NCI-H226 lung
[11] = system: A498 renal
[12] = system: SF-268 CNS
[13] = system: MOLT-4 leukemia
[14] = system: CCRF-CEM leukemia
[15] = system: NCI-H522 lung
[16] = system: K-562 leukemia

CN(C)CC1CCCc2ccccc2C1=O (configuration not stated)
TGI [1]: 15.9 µM | TGI [2]: 3.42 µM | TGI [3]: 3.26 µM | TGI [4]: 0.21 µM | TGI [5]: 6.25 µM | TGI [6]: 9.8 µM | TGI [7]: 33.5 µM | TGI [8]: 4.69 µM | TGI [9]: 4.29 µM | TGI [10]: 48.8 µM | TGI [11]: 49.6 µM | TGI [12]: 5.55 µM

O=C1CC(C(COCc2ccccc2)OCc2ccccc2)CC(=O)N1 (configuration not stated)
TGI [1]: > 100 µM | TGI [2]: > 100 µM | TGI [13]: > 100 µM | TGI [3]: > 100 µM | TGI [4]: > 100 µM | TGI [5]: > 100 µM | TGI [14]: > 100 µM | TGI [6]: > 100 µM | TGI [7]: > 100 µM | TGI [15]: > 100 µM | TGI [8]: > 100 µM | TGI [9]: > 100 µM | TGI [10]: > 100 µM | TGI [16]: > 100 µM | TGI [12]: > 100 µM

OC(C1CCCCCCCCCC1)C(O)C1CCCCCCCCCC1 (configuration not stated)
TGI [1]: > 100 µM | TGI [2]: > 100 µM | TGI [13]: > 100 µM | TGI [3]: > 100 µM | TGI [4]: > 100 µM | TGI [5]: > 100 µM | TGI [14]: > 100 µM | TGI [6]: > 100 µM | TGI [7]: > 100 µM | TGI [15]: > 100 µM | TGI [8]: > 100 µM | TGI [9]: > 100 µM | TGI [10]: > 100 µM | TGI [16]: > 100 µM | TGI [12]: > 100 µM

COc1ccc(-c2nc(-c3cnccn3)n(Cc3ccccc3)n2)cc1
TGI [1]: > 100 µM | TGI [2]: > 100 µM | TGI [13]: > 100 µM | TGI [3]: > 100 µM | TGI [4]: > 100 µM | TGI [14]: > 100 µM | TGI [6]: > 100 µM | TGI [7]: > 100 µM | TGI [15]: > 100 µM | TGI [8]: > 100 µM | TGI [9]: > 100 µM | TGI [16]: > 100 µM | TGI [12]: > 100 µM

CCC(=O)N1C(=O)C(CC)(CC)C(=O)N1C(=O)CC
TGI [1]: > 100 µM | TGI [2]: > 100 µM | TGI [13]: > 100 µM | TGI [3]: > 100 µM | TGI [4]: > 100 µM | TGI [5]: > 100 µM | TGI [14]: > 100 µM | TGI [6]: > 100 µM | TGI [7]: > 100 µM | TGI [15]: > 100 µM | TGI [8]: > 100 µM | TGI [9]: > 100 µM | TGI [10]: > 100 µM | TGI [16]: > 100 µM | TGI [12]: > 100 µM

O=C(CC(c1ccccc1)C(C(=O)c1ccncc1)C(CC(=O)c1ccncc1)c1ccccc1)c1ccncc1 (configuration not stated)
TGI [2]: > 100 µM | TGI [13]: > 100 µM | TGI [3]: > 100 µM | TGI [4]: > 100 µM | TGI [5]: > 100 µM | TGI [14]: > 100 µM | TGI [6]: 57.3 µM | TGI [7]: > 100 µM | TGI [8]: > 100 µM | TGI [9]: > 100 µM | TGI [10]: > 100 µM | TGI [11]: > 100 µM | TGI [12]: > 100 µM

O=C1CCC2(c3ccc(Cl)cc3)Nc3ncncc3N12 (configuration not stated)
TGI [2]: > 10 µM | TGI [13]: > 10 µM | TGI [14]: > 10 µM | TGI [6]: > 10 µM | TGI [7]: > 10 µM | TGI [15]: > 10 µM | TGI [8]: > 10 µM | TGI [9]: > 10 µM | TGI [10]: > 10 µM | TGI [16]: > 10 µM | TGI [12]: > 10 µM

O=S(c1ccc(Cl)cc1)c1ccccc1C1=NCCN1 (configuration not stated)
TGI [1]: > 100 µM | TGI [2]: > 100 µM | TGI [13]: > 100 µM | TGI [3]: > 100 µM | TGI [4]: > 100 µM | TGI [5]: > 100 µM | TGI [14]: > 100 µM | TGI [6]: > 100 µM | TGI [7]: > 100 µM | TGI [15]: > 100 µM | TGI [8]: > 100 µM | TGI [9]: > 100 µM | TGI [10]: > 100 µM | TGI [16]: > 100 µM | TGI [12]: > 100 µM

COc1cc2[nH]c(=O)c3cc(C)cc4c(Cl)nc(c1OC)c2c43
TGI [1]: > 100 µM | TGI [2]: > 100 µM | TGI [13]: > 100 µM | TGI [3]: > 100 µM | TGI [4]: > 100 µM | TGI [5]: > 100 µM | TGI [14]: > 100 µM | TGI [6]: > 100 µM | TGI [7]: > 100 µM | TGI [15]: > 100 µM | TGI [8]: > 100 µM | TGI [9]: > 100 µM | TGI [10]: > 100 µM | TGI [16]: > 100 µM | TGI [12]: 84.8 µM

CC1CCOc2ccc(cc2)C=Nc2ccc(cc2)-c2ccc(cc2)N=Cc2ccc(cc2)OCC1 (configuration not stated)
TGI [1]: > 100 µM | TGI [2]: > 100 µM | TGI [13]: > 100 µM | TGI [3]: > 100 µM | TGI [4]: > 100 µM | TGI [5]: > 100 µM | TGI [14]: > 100 µM | TGI [6]: > 100 µM | TGI [7]: > 100 µM | TGI [15]: > 100 µM | TGI [8]: > 100 µM | TGI [9]: > 100 µM | TGI [10]: > 100 µM | TGI [16]: > 100 µM | TGI [12]: > 100 µM

N#CCc1nc2cc(C(F)(F)F)ccc2s1
TGI [1]: > 100 µM | TGI [13]: > 100 µM | TGI [3]: 95.2 µM | TGI [4]: > 100 µM | TGI [5]: > 100 µM | TGI [6]: > 100 µM | TGI [7]: > 100 µM | TGI [15]: 34.5 µM | TGI [8]: > 100 µM | TGI [9]: 87.4 µM | TGI [10]: > 100 µM | TGI [11]: > 100 µM | TGI [12]: > 100 µM

COC1=CC(=O)c2nc3ccccc3c3ccnc1c23
TGI [1]: 2.82 µM | TGI [2]: 13.7 µM | TGI [13]: 13 µM | TGI [3]: > 22.8 µM | TGI [4]: > 65.5 µM | TGI [5]: > 53.8 µM | TGI [14]: 13.8 µM | TGI [6]: 29.6 µM | TGI [7]: 29.7 µM | TGI [15]: 20.5 µM | TGI [8]: > 43.3 µM | TGI [9]: > 53.3 µM | TGI [10]: 33 µM | TGI [16]: > 100 µM | TGI [12]: > 44.2 µM

CCOc1ccc(NCC2CC/C(=C\c3ccc(Cl)cc3)C2=O)cc1 (configuration not stated)
TGI [1]: > 59.2 µM | TGI [2]: 50.6 µM | TGI [13]: 69.8 µM | TGI [3]: > 62.9 µM | TGI [4]: 10.2 µM | TGI [5]: > 73.8 µM | TGI [14]: 22.8 µM | TGI [7]: > 100 µM | TGI [15]: 13.9 µM | TGI [8]: > 44 µM | TGI [9]: > 52.8 µM | TGI [10]: > 100 µM | TGI [16]: 34.9 µM | TGI [11]: > 95.9 µM | TGI [12]: > 86.7 µM

CN(C(=O)C12C3C4C1C1C2C3C41C(O)C(C)(C)C)C(C)(C)C (configuration not stated)
TGI [1]: > 100 µM | TGI [2]: > 100 µM | TGI [13]: > 100 µM | TGI [3]: > 100 µM | TGI [4]: > 100 µM | TGI [5]: > 100 µM | TGI [14]: > 100 µM | TGI [7]: > 100 µM | TGI [15]: > 100 µM | TGI [8]: > 100 µM | TGI [9]: > 100 µM | TGI [10]: > 100 µM | TGI [16]: > 100 µM | TGI [11]: > 100 µM | TGI [12]: > 100 µM
